Legend:
[1] = system: MDA-MB-231; test: cells; parameters: MTT cell viability assay, antiproliferative IC50 in MDA-MB-231 breast cancer cells; conditions: Homo sapiens, MDA-MB-231, 48 h
Method: (§1) To assess the effect of MAO-AIs on the survival and proliferation of breast cancer cells, MTT colorimetric analysis was performed as previously described. MDA-MB-231 and T47D cells were seeded into a 96-well plate, at a different seeding density per well depending on proliferation ability, doubling time, and target time of treatment. Then, cells were maintained at 37°C in a humidified 5% CO2 atmosphere. Cell viability was calculated as follows: cell viability (%) = [(optical density of viable cells in the test group)/optical density of viable cells in the negative control group] × 100%. Experiments were run at least 2-3 times independently. […] The ratio of IC50 for each drug alone guided the selection of an appropriate combination ratio. As described earlier, the MTT test was used to determine cell viability after treatment time elapsed (48 hours). CompuSyn software (ComboSyn Inc., Paramus, NJ, USA) was used to determine the combination index (CI), which is based on Chou-Talalay's combination index theorem, and its formula is the sum of the ratio of the dose of each drug in the compound to the dose when used alone when the combination and compound produce 50% efficacy. CI values < 1, =1, and > 1 indicate synergism, additive, and antagonistic effects, respectively, as shown in Equation (1). In this study, MTT assay was performed after exposing MDA-MB-231 and T-47d cell lines to increasing concentrations of MAO-A inhibitors for either 24, 48, or 72 h. […] Breast cancer cell lines, T-47D and MDA-MB-231 cells, were purchased from American Type Culture Collection (ATCC, USA). Cells were cultured in DMEM high glucose culture medium supplemented with 10% fetal bovine serum (FBS), 2 mM L-glutamine, 100 U/mL penicillin, and 0.1 mg/mL streptomycin. Cells were maintained in a humidified controlled temperature incubator set at 37°C, 95% humidity, and 5% CO2.

[2] = system: T-47D; test: cells; parameters: MTT cell viability assay, antiproliferative IC50 in T-47D breast cancer cells; conditions: Homo sapiens, T47D, 48 h
Method: as §1

IC50 [1] [µM]	IC50 [2] [µM]	SMILES
2	2.2	COc1cccc2c1C(=O)c1c(O)c3c(c(O)c1C2=O)C[C@@](O)(C(=O)CO)C[C@@H]3O[C@H]1C[C@H](N)[C@H](O)[C@H](C)O1 [Doxorubicin]
163	157	C#CCN(C)CCCOc1ccc(Cl)cc1Cl [J19, clorgyline]
27	28	O=C(c1ccc(OCCN2CCCCC2)cc1)c1c(-c2ccc(O)cc2)sc2cc(O)ccc12 [Raloxifene]

From paper PMC10569896, “Molecular Investigation of the Antitumor Effects of Monoamine Oxidase Inhibitors in Breast Cancer Cells” (BioMed Research International, 2023)
